Experimental data: patent US20230002374A1, “GPR52 MODULATOR COMPOUNDS” (Heptares Therapeutics Limited, priority 2019, published 2023)

Target: human GPR52 (Homo sapiens, UniProt Q9Y2T5)
Test: GPR52 Agonist Functional cAMP Assay;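 further: HEKf cells transduced with GPR52 BacMam for 24 h, 2000 per well, exposed to compounds 30 min at 37° C with 0.5 mM IBMX, cAMP read by HTRF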
Conditions: for Emax: maximal response normalised to DMSO (0%) and maximal compound 7m (J. Med. Chem., 2014, 57, 5226) response (100%); for EC50: pEC50 average, HEKf cells infected with human GPR52 BacMam virus, cAMP HTRF, 30 min at 37° C.
Description: Following BacMam infection, cells were pelleted by centrifugation (335 g, 5 min), resuspended in cell freezing medium (Sigma) and frozen at −150° C. until required. On experiment day, 25 nL GPR52 compound dilutions, prepared in DMSO, were stamped onto proxiplates (PerkinElmer) by a LabCyte ECHO acoustic dispenser. Frozen cells were thawed and resuspended in assay stimulation buffer (Cisbio) containing 0.5 mM 3-iso-butyl-1-methylxanthine (IBMX, Sigma) to achieve a density of 2000 cells per well. 10 μl cells were added to assay plates using a Multidrop Combi Reagent Dispenser (ThermoFisher) before centrifugation (335 g, 1 min). Cells were incubated with compounds at 37° C. for 30 min prior to addition of cAMP detection reagents (HiRange cAMP kit, Cisbio) which were prepared according to the manufacturer's instructions. Plates were shaken for 1 h at room temperature before reading on a PHERAstar FS plate reader (BMG Labtech) using standard HTRF settings.

Chain of human GPR52 (Q9Y2T5 whole entry): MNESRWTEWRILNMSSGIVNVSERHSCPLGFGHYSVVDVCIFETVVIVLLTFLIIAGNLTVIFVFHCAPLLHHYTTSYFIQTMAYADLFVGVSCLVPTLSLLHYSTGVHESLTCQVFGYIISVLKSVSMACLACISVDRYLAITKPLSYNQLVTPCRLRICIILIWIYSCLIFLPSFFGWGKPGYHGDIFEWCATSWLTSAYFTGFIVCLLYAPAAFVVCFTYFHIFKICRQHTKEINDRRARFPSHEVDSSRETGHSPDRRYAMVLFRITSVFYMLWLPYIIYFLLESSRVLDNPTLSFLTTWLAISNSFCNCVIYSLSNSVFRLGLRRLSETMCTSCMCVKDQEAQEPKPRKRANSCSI

| SMILES | Emax | EC50 |
| --- | --- | --- |
| Cc1nn(-c2cc(Cc3cc(F)cc(C(F)(F)F)c3)ccn2)c2c1C(=O)NCC2 [Example 95, 1-(4-(3-fluoro-5-(trifluoromethyl)benzyl)pyridin-2-yl)-3-methyl-1,5,6,7-tetrahydro-4H-pyrazolo[4,3-c]pyridin-4-one] | 98% | 6.31 nM |
| O=C1NCCc2nn(-c3cc(Cc4cc(F)cc(C(F)(F)F)c4)ccn3)nc21 [Example 98, 2-(4-(3-fluoro-5-(trifluoromethyl)benzyl)pyridin-2-yl)-2,5,6,7-tetrahydro-4H-[1,2,3]triazolo[4,5-c]pyridin-4-one] | 92% | 158 nM |
| O=C1NCCc2c1cnn2-c1cncc(Oc2cc(F)cc(C(F)(F)F)c2)c1 [Example 103, 1-(5-(3-fluoro-5-(trifluoromethyl)phenoxy)pyridin-3-yl)-1,5,6,7-tetrahydro-4H-pyrazolo[4,3-c]pyridin-4-one] | 68% | 1000 nM |
| O=C1c2cnn(-c3ccnc(Cc4cc(F)cc(C(F)(F)F)c4)c3)c2CCN1CCO [Example 105, 1-(2-(3-fluoro-5-(trifluoromethyl)benzyl)pyridin-4-yl)-5-(2-hydroxyethyl)-1,5,6,7-tetrahydro-4H-pyrazolo[4,3-c]pyridin-4-one] | 97% | 63.1 nM |
| COCCN1CCc2c(cnn2-c2cc(Cc3cc(F)cc(C(F)(F)F)c3)ccn2)C1=O [Example 106, 1-(4-(3-fluoro-5-(trifluoromethyl)benzyl)pyridin-2-yl)-5-(2-methoxyethyl)-1,5,6,7-tetrahydro-4H-pyrazolo[4,3-c]pyridin-4-one] | 86% | 31.6 nM |
| O=C1c2cnn(-c3cc(Cc4cc(F)cc(C(F)(F)F)c4)ccn3)c2CCN1CCO [Example 107, 1-(4-(3-fluoro-5-(trifluoromethyl)benzyl)pyridin-2-yl)-5-(2-hydroxyethyl)-1,5,6,7-tetrahydro-4H-pyrazolo[4,3-c]pyridin-4-one] | 99% | 12.6 nM |
| Cc1cnc(Cc2cc(F)cc(C(F)(F)F)c2)cc1-n1ncc2c1CCNC2=O [Example 108, 1-(2-(3-fluoro-5-(trifluoromethyl)benzyl)-5-methylpyridin-4-yl)-1,5,6,7-tetrahydro-4H-pyrazolo[4,3-c]pyridin-4-one] | 80% | 79.4 nM |
| Cc1nn(-c2ccnc(Cc3cnc(OC(F)F)c(F)c3)c2)c2c1C(=O)NCC2 [Example 111, 1-(2-((6-(difluoromethoxy)-5-fluoropyridin-3-yl)methyl)pyridin-4-yl)-3-methyl-1,5,6,7-tetrahydro-4H-pyrazolo[4,3-c]pyridin-4-one] | 87% | 63.1 nM |
| O=C1NCCOc2nn(-c3ccnc(Cc4cc(F)cc(C(F)(F)F)c4)c3)cc21 [Example 112, 2-(2-(3-fluoro-5-(trifluoromethyl)benzyl)pyridin-4-yl)-6,7-dihydro-2H-pyrazolo[4,3-f][1,4]oxazepin-4(5H)-one] | 77% | 398 nM |
| O=C1NCCc2c1c(CO)nn2-c1cc(Cc2cc(F)cc(C(F)(F)F)c2)ccn1 [Example 113, 1-(4-(3-fluoro-5-(trifluoromethyl)benzyl)pyridin-2-yl)-3-(hydroxymethyl)-1,5,6,7-tetrahydro-4H-pyrazolo[4,3-c]pyridin-4-one] | 95% | 15.8 nM |

Second part, the molecule after the results:

| Emax | EC50 | SMILES |
| --- | --- | --- |
| 94% | 794 nM | N#Cc1cc(F)cc(Cc2cc(-n3ncc4c3CCNC4=O)ccn2)c1 [Example 96, 3-fluoro-5-((4-(4-oxo-4,5,6,7-tetrahydro-1H-pyrazolo[4,3-c]pyridin-1-yl)pyridin-2-yl)methyl)benzonitrile] |
| 90% | 2510 nM | O=C1NCCCc2c1nnn2-c1ccnc(Cc2cc(F)cc(C(F)(F)F)c2)c1 [Example 97, 1-(2-(3-fluoro-5-(trifluoromethyl)benzyl)pyridin-4-yl)-5,6,7,8-tetrahydro-[1,2,3]triazolo[4,5-c]azepin-4(1H)-one] |
| 95% | 126 nM | O=C1NCCc2c1nnn2-c1cc(Cc2cc(F)cc(C(F)(F)F)c2)ccn1 [Example 99, 1-(4-(3-fluoro-5-(trifluoromethyl)benzyl)pyridin-2-yl)-1,5,6,7-tetrahydro-4H-[1,2,3]triazolo[4,5-c]pyridin-4-one] |
| 98% | 10 nM | O=C1NCCc2c1cnn2-c1cc(Cc2cc(F)cc(C(F)F)c2)ccn1 [Example 102, 1-(4-(3-(difluoromethyl)-5-fluorobenzyl)pyridin-2-yl)-1,5,6,7-tetrahydro-4H-pyrazolo[4,3-c]pyridin-4-one] |
| 94% | 100 nM | COCCN1CCc2c(cnn2-c2ccnc(Cc3cc(F)cc(C(F)(F)F)c3)c2)C1=O [Example 104, 1-(2-(3-fluoro-5-(trifluoromethyl)benzyl)pyridin-4-yl)-5-(2-methoxyethyl)-1,5,6,7-tetrahydro-4H-pyrazolo[4,3-c]pyridin-4-one] |
| 74% | 501 nM | O=C1NCCc2c1cnn2-c1ccnc(Cc2cnc(OC(F)F)c(F)c2)c1 [Example 110, 1-(2-((6-(difluoromethoxy)-5-fluoropyridin-3-yl)methyl)pyridin-4-yl)-1,5,6,7-tetrahydro-4H-pyrazolo[4,3-c]pyridin-4-one] |
| 93% | 39.8 nM | O=C1NCCc2c1c(CO)nn2-c1ccnc(Cc2cc(F)cc(C(F)(F)F)c2)c1 [Example 114, 1-(2-(3-fluoro-5-(trifluoromethyl)benzyl)pyridin-4-yl)-3-(hydroxymethyl)-1,5,6,7-tetrahydro-4H-pyrazolo[4,3-c]pyridin-4-one] |
| 91% | 25.1 nM | N#Cc1nn(-c2ccnc(Cc3cc(F)cc(C(F)(F)F)c3)c2)c2c1C(=O)NCC2 [Example 115, 1-(2-(3-fluoro-5-(trifluoromethyl)benzyl)pyridin-4-yl)-4-oxo-4,5,6,7-tetrahydro-1H-pyrazolo[4,3-c]pyridine-3-carbonitrile] |
| 95% | 5.01 nM | O=C1NCCc2c1c(C(F)(F)F)nn2-c1ccnc(Cc2cc(F)cc(C(F)(F)F)c2)c1 [Example 116, 1-(2-(3-fluoro-5-(trifluoromethyl)benzyl)pyridin-4-yl)-3-(trifluoromethyl)-1,5,6,7-tetrahydro-4H-pyrazolo[4,3-c]pyridin-4-one] |
